Experimental data reported in PubChem BioAssay (NCI).
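48-hour exposure; five concentrations; linearly interpolated endpoints. Definition used: TGI = concentration required for complete inhibition of growth.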

Experiments:
Experiment in all cases: DTP human tumour cell line panel, 48 h
[1] = test system: OVCAR-4 ovarian
[2] = test system: U251 CNS
[3] = test system: SK-OV-3 ovarian
[4] = test system: SNB-19 CNS
[5] = test system: UACC-62 melanoma
[6] = test system: M14 melanoma
[7] = test system: HS 578T breast
[8] = test system: MDA-N
[9] = test system: K-562 leukemia
[10] = test system: RPMI-8226 leukemia
[11] = test system: HT29 colon
[12] = test system: MDA-MB-231 breast
[13] = test system: SK-MEL-2 melanoma
[14] = test system: ACHN renal
[15] = test system: UO-31 renal
[16] = test system: HOP-62 NSCLC
[17] = test system: IGROV1 ovarian
[18] = test system: NCI/ADR-RES ovarian
[19] = test system: EKVX NSCLC
[20] = test system: MOLT-4 leukemia
[21] = test system: HCT-116 colon
[22] = test system: NCI-H460 lung
[23] = test system: SNB-75 CNS
[24] = test system: NCI-H226 lung
[25] = test system: A549 NSCLC
[26] = test system: HL-60(TB) leukemia
[27] = test system: SN12C renal
[28] = test system: NCI-H522 lung
[29] = test system: HCT-15 colon
[30] = test system: SF-268 CNS
[31] = test system: SR leukemia
[32] = test system: MCF7 breast
[33] = test system: HOP-92 NSCLC
[34] = test system: NCI-H23 lung
[35] = test system: SK-MEL-28 melanoma
[36] = test system: HCC-2998 colon
[37] = test system: T-47D breast
[38] = test system: RXF 393 renal
[39] = test system: A498 renal
[40] = test system: DU-145 prostate
[41] = test system: MDA-MB-435
[42] = test system: OVCAR-3 ovarian
[43] = test system: SF-295 CNS
[44] = test system: SF-539 CNS
[45] = test system: SW-620 colon
[46] = test system: TK-10 renal
[47] = test system: PC-3 prostate
[48] = test system: OVCAR-8 ovarian
[49] = test system: CAKI-1 renal
[50] = test system: SK-MEL-5 melanoma
[51] = test system: COLO 205 colon
[52] = test system: CCRF-CEM leukemia
[53] = test system: MALME-3M melanoma
[54] = test system: 786-0 renal
[55] = test system: KM12 colon
[56] = test system: LOX IMVI melanoma
[57] = test system: UACC-257 melanoma
[58] = test system: BT-549 breast
[59] = test system: OVCAR-5 ovarian

Structure (SMILES): CN(C)C(=O)Nc1cc2c3c(c1)CCCN3CCC2
- TGI [1]: > 10 µM
- TGI [2]: > 10 µM
- TGI [3]: > 10 µM
- TGI [4]: > 10 µM
- TGI [5]: > 10 µM
- TGI [6]: > 10 µM
- TGI [7]: > 10 µM
- TGI [8]: > 10 µM
- TGI [9]: > 10 µM
- TGI [10]: > 10 µM
- TGI [11]: > 10 µM
- TGI [12]: > 10 µM
- TGI [13]: > 10 µM
- TGI [14]: > 10 µM
- TGI [15]: > 10 µM
- TGI [16]: > 10 µM
- TGI [17]: > 10 µM
- TGI [18]: > 10 µM
- TGI [19]: > 10 µM
- TGI [20]: > 10 µM
- TGI [21]: > 10 µM
- TGI [22]: > 10 µM
- TGI [23]: > 10 µM
- TGI [24]: > 10 µM
- TGI [25]: > 10 µM
- TGI [26]: > 10 µM
- TGI [27]: > 10 µM
- TGI [28]: > 10 µM
- TGI [29]: > 10 µM
- TGI [30]: > 10 µM
- TGI [31]: > 10 µM
- TGI [32]: > 10 µM
- TGI [33]: > 10 µM
- TGI [34]: > 10 µM
- TGI [35]: > 10 µM
- TGI [36]: > 10 µM
- TGI [37]: > 10 µM
- TGI [38]: > 10 µM
- TGI [39]: > 10 µM
- TGI [40]: > 10 µM
- TGI [41]: > 10 µM
- TGI [42]: > 10 µM
- TGI [43]: > 10 µM
- TGI [44]: > 10 µM
- TGI [45]: > 10 µM
- TGI [46]: > 10 µM
- TGI [47]: > 10 µM
- TGI [48]: > 10 µM
- TGI [49]: > 10 µM
- TGI [50]: > 10 µM
- TGI [51]: > 10 µM
- TGI [52]: > 10 µM
- TGI [53]: > 10 µM
- TGI [54]: > 10 µM
- TGI [55]: > 10 µM
- TGI [56]: > 10 µM
- TGI [57]: > 10 µM

Structure (SMILES): COc1ccc2cc(/C=N\NC(=O)Nc3cccc4ccccc34)ccc2c1
- TGI [1]: 72.1 µM
- TGI [2]: 29.9 µM
- TGI [4]: 53.5 µM
- TGI [6]: > 100 µM
- TGI [7]: 94.6 µM
- TGI [8]: > 100 µM
- TGI [9]: 36.5 µM
- TGI [11]: > 100 µM
- TGI [12]: 65.7 µM
- TGI [13]: > 100 µM
- TGI [14]: 76.6 µM
- TGI [15]: > 100 µM
- TGI [16]: 28.7 µM
- TGI [17]: > 100 µM
- TGI [18]: > 100 µM
- TGI [19]: > 100 µM
- TGI [20]: > 100 µM
- TGI [21]: 30.5 µM
- TGI [22]: 86.4 µM
- TGI [23]: 47.2 µM
- TGI [24]: > 100 µM
- TGI [25]: > 100 µM
- TGI [27]: > 100 µM
- TGI [28]: > 100 µM
- TGI [29]: > 100 µM
- TGI [30]: > 100 µM
- TGI [31]: 29.6 µM
- TGI [32]: > 100 µM
- TGI [34]: > 100 µM
- TGI [35]: > 100 µM
- TGI [36]: > 100 µM
- TGI [38]: > 100 µM
- TGI [39]: 31.3 µM
- TGI [40]: > 100 µM
- TGI [41]: > 100 µM
- TGI [58]: > 100 µM
- TGI [59]: > 100 µM
- TGI [44]: > 100 µM
- TGI [45]: > 100 µM
- TGI [46]: 56.5 µM
- TGI [47]: > 100 µM
- TGI [48]: > 100 µM
- TGI [49]: 47.6 µM
- TGI [50]: > 100 µM
- TGI [51]: > 100 µM
- TGI [52]: 41.8 µM
- TGI [53]: > 100 µM
- TGI [54]: 25.5 µM
- TGI [55]: > 100 µM
- TGI [56]: > 100 µM
- TGI [57]: > 100 µM
